Laboratory results as given in article PMC11456916, “A screen for cell envelope stress uncovers an inhibitor of prolipoprotein diacylglyceryl transferase, Lgt, in Escherichiacoli” (iScience, 2024).

Tested on: 356 CRISPRi constructs in E. coli ΔtolC-pore
Test: CRISPRi collection fitness screen with sub-inhibitory compound
Type: cell-based
Conditions: for Growth represented as mean colony biomass: 1μg/ml MAC0452936, 6ng/ml LolCDE-in-1, 250 ng/ml Vancomycin, 7 ng/ml CHIR090, n=4; for Growth, mean colony biomass (n=4): + 6ng/ml LolCDE-in-1
From the text: To that end, we screened the E. coli CRISPRi collection in the ΔtolC-pore genetic background with a sub-inhibitory concentration of MAC-0452936 and measured the fitness of all 356 CRISPRi mutants (Figure 4C and Data S4). […] To that end, we introduced either an arabinose inducible copy of lgt supplied on the pCHAP9231 plasmid[48] or the pBAD19s plasmid as a control into E. coli ΔtolC-pore and tested the potency of MAC-0452936 (Figure 4E). […] To test this hypothesis, we constructed E. coli ΔlgtΔtolC-pore with pCHAP9231[48] so that lgt expression was driven solely by arabinose from the plasmid.
For screens of the CRISPRi collection with MAC-0452936, the mobile CRISPRi collection was first conjugated into E. coli ΔtolC-pore as previously described.[30] The CRISPRi collection was then arrayed on solid agar at 1536 density using the Singer-ROTOR, such that each CRISPRi strain is arrayed in technical quadruplicate. […] The screens were conducted without CRISPRi induction, using just the 5–10% basal knockdown from the pFD152 CRISPRi plasmid. Following overnight growth, plates were imaged using high-resolution scanners (Epson Perfection v750), and colony biomass for each mutant was determined.

[1] = sub-inhibitory (¼ MIC) concentration, LB agar, basal knockdown

Fc1ccc(COc2cccc(-c3[nH]ncc3-c3ccncc3)c2)cc1 [LolCDE-in-1]
Growth represented as mean colony biomass (gRNA accA): 1.008 | Growth, mean colony biomass (n=4) (gRNA aceF): 1.072 | Growth, mean colony biomass (n=4) (gRNA alaS): 1.101 | Growth, mean colony biomass (n=4) (gRNA argS): 1.113 | Growth, mean colony biomass (n=4) (gRNA asnS): 1.091 | Growth, mean colony biomass (n=4) (gRNA bamA): 1.074 | Growth, mean colony biomass (n=4) (gRNA bamD): 0.9928 | Growth, mean colony biomass (n=4) (gRNA bioA): 1.016 | Growth, mean colony biomass (n=4) (gRNA can): 1.04 | Growth represented as mean colony biomass (gRNA cca): 1 | Growth represented as mean colony biomass (gRNA coaA): 1.117 | Growth, mean colony biomass (n=4) (gRNA csrA): 0.5912 | Growth represented as mean colony biomass (gRNA cydA): 1.002 | Growth represented as mean colony biomass (gRNA cydX): 0.9564 | Growth represented as mean colony biomass (gRNA dapD): 0.9627 | Growth represented as mean colony biomass (gRNA dapE): 0.9407 | Growth represented as mean colony biomass (gRNA der): 0.9198 | Growth represented as mean colony biomass (gRNA dfp): 0.9029 | Growth, mean colony biomass (n=4) (gRNA dnaC): 1.011 | Growth represented as mean colony biomass (gRNA dnaE): 1.003 | Growth represented as mean colony biomass (gRNA dnaN): 0.9294 | Growth represented as mean colony biomass (gRNA dnaX): 0.8532 | Growth, mean colony biomass (n=4) (gRNA dut): 1.113 | Growth represented as mean colony biomass (gRNA eno): 1.0061 | Growth represented as mean colony biomass (gRNA era): 0.9669 | Growth represented as mean colony biomass (gRNA fabA): 0.9879 | Growth represented as mean colony biomass (gRNA fabG): 0.9717 | Growth represented as mean colony biomass (gRNA fabI): 0.9771 | Growth represented as mean colony biomass (gRNA fdx): 0.998 | Growth represented as mean colony biomass (gRNA fldA): 1.014 | Growth, mean colony biomass (n=4) (gRNA folA): 1.074 | Growth represented as mean colony biomass (gRNA folB): 1.004 | Growth, mean colony biomass (n=4) (gRNA folC): 0.9924 | Growth represented as mean colony biomass (gRNA folE): 1.028 | Growth represented as mean colony biomass (gRNA folP): 1.013 | Growth represented as mean colony biomass (gRNA frr): 0.8456 | Growth, mean colony biomass (n=4) (gRNA ftsA): 0.866 | Growth represented as mean colony biomass (gRNA gapA): 0.9875 | Growth, mean colony biomass (n=4) (gRNA glmS): 1.023 | Growth represented as mean colony biomass (gRNA glmU): 0.9948 | Growth represented as mean colony biomass (gRNA gltX): 1.01 | Growth, mean colony biomass (n=4) (gRNA glyA): 0.9609 | Growth represented as mean colony biomass (gRNA groS): 0.8911 | Growth represented as mean colony biomass (gRNA grpE): 0.9325 | Growth represented as mean colony biomass (gRNA guaA): 1.005 | Growth, mean colony biomass (n=4) (gRNA hemD): 1.064 | Growth represented as mean colony biomass (gRNA hemG): 0.9487 | Growth represented as mean colony biomass (gRNA hemH): 0.9202 | Growth represented as mean colony biomass (gRNA hemL): 0.9936 | Growth represented as mean colony biomass (gRNA higA): 0.9523 | Growth represented as mean colony biomass (gRNA hisS): 0.9867 | Growth represented as mean colony biomass (gRNA holD): 1.037 | Growth represented as mean colony biomass (gRNA hscA): 1.068 | Growth, mean colony biomass (n=4) (gRNA infA): 1.13 | Growth represented as mean colony biomass (gRNA infC): 0.9943 | Growth represented as mean colony biomass (gRNA iscU): 0.9298 | Growth represented as mean colony biomass (gRNA ispB): 0.9724 | Growth represented as mean colony biomass (gRNA ispF): 0.9965 | Growth, mean colony biomass (n=4) (gRNA leuS): 1.148 | Growth, mean colony biomass (n=4) (gRNA lexA): 0.4661 | Growth represented as mean colony biomass (gRNA lolC): 0.5845 | Growth, mean colony biomass (n=4) (gRNA lptA): 1.047 | Growth, mean colony biomass (n=4) (gRNA lptB): 0.9337 | Growth represented as mean colony biomass (gRNA lptC): 0.8997 | Growth represented as mean colony biomass (gRNA lptE): 0.9982 | Growth represented as mean colony biomass (gRNA lptF): 0.9678 | Growth represented as mean colony biomass (gRNA lptG): 1.0135 | Growth represented as mean colony biomass (gRNA lpxC): 0.9296 | Growth represented as mean colony biomass (gRNA lpxD): 0.9894 | Growth, mean colony biomass (n=4) (gRNA mnmA): 1.137 | Growth, mean colony biomass (n=4) (gRNA mrdB): 0.9351 | Growth represented as mean colony biomass (gRNA mreB): 0.9708 | Growth represented as mean colony biomass (gRNA mreC): 0.8551 | Growth, mean colony biomass (n=4) (gRNA msbA): 1.057 | Growth, mean colony biomass (n=4) (gRNA mukF): 0.8694 | Growth represented as mean colony biomass (gRNA murB): 1.046 | Growth represented as mean colony biomass (gRNA murC): 0.881 | Growth, mean colony biomass (n=4) (gRNA murI): 0.5015 | Growth, mean colony biomass (n=4) (gRNA nadK): 1.043 | Growth represented as mean colony biomass (gRNA nusB): 0.9929 | Growth represented as mean colony biomass (gRNA plsB): 0.8854 | Growth, mean colony biomass (n=4) (gRNA prmC): 1.031 | Growth represented as mean colony biomass (gRNA proS): 1.0017 | Growth, mean colony biomass (n=4) (gRNA psd): 1.234 | Growth, mean colony biomass (n=4) (gRNA pssA): 0.9781 | Growth, mean colony biomass (n=4) (gRNA ptsI): 1.151 | Growth represented as mean colony biomass (gRNA racR): 0.9577 | Growth, mean colony biomass (n=4) (gRNA rho): 1.25 | Growth represented as mean colony biomass (gRNA ribA): 0.9663 | Growth represented as mean colony biomass (gRNA ribC): 0.899 | Growth, mean colony biomass (n=4) (gRNA ribD): 1.034 | Growth represented as mean colony biomass (gRNA ribF): 0.9681 | Growth represented as mean colony biomass (gRNA rimM): 1.015 | Growth represented as mean colony biomass (gRNA rluD): 1.0361 | Growth, mean colony biomass (n=4) (gRNA rne): 1.086 | Growth represented as mean colony biomass (gRNA rpe): 1.032 | Growth, mean colony biomass (n=4) (gRNA rplA): 1.044 | Growth represented as mean colony biomass (gRNA rplD): 0.9769 | Growth represented as mean colony biomass (gRNA rplE): 0.973 | Growth represented as mean colony biomass (gRNA rplJ): 0.9047 | Growth represented as mean colony biomass (gRNA rplO): 0.9645 | Growth, mean colony biomass (n=4) (gRNA rplP): 1.111 | Growth represented as mean colony biomass (gRNA rplQ): 1.063 | Growth represented as mean colony biomass (gRNA rplS): 0.9823 | Growth, mean colony biomass (n=4) (gRNA rplV): 1.159 | Growth, mean colony biomass (n=4) (gRNA rplX): 1.003 | Growth represented as mean colony biomass (gRNA rplY): 1.022 | Growth, mean colony biomass (n=4) (gRNA rpmC): 1.247 | Growth represented as mean colony biomass (gRNA rpmH): 0.9499 | Growth represented as mean colony biomass (gRNA rpmI): 0.8822 | Growth, mean colony biomass (n=4) (gRNA rpoC): 0.9718 | Growth, mean colony biomass (n=4) (gRNA rpoE): 1.012 | Growth represented as mean colony biomass (gRNA rpoH): 1.025 | Growth, mean colony biomass (n=4) (gRNA rpsC): 0.9823 | Growth, mean colony biomass (n=4) (gRNA rpsD): 1.397 | Growth represented as mean colony biomass (gRNA rpsE): 1.159 | Growth represented as mean colony biomass (gRNA rpsF): 1.092 | Growth, mean colony biomass (n=4) (gRNA rpsG): 0.9387 | Growth represented as mean colony biomass (gRNA rpsH): 1.028 | Growth, mean colony biomass (n=4) (gRNA rpsK): 1.066 | Growth, mean colony biomass (n=4) (gRNA rpsL): 0.9811 | Growth, mean colony biomass (n=4) (gRNA rpsM): 1.056 | Growth, mean colony biomass (n=4) (gRNA rpsR): 1.049 | Growth, mean colony biomass (n=4) (gRNA rpsT): 1.1909 | Growth represented as mean colony biomass (gRNA rsgA): 0.9518 | Growth represented as mean colony biomass (gRNA safA): 0.9369 | Growth, mean colony biomass (n=4) (gRNA secA): 1.053 | Growth represented as mean colony biomass (gRNA secY): 1.019 | Growth represented as mean colony biomass (gRNA serS): 1.011 | Growth represented as mean colony biomass (gRNA ssb): 1.001 | Growth represented as mean colony biomass (gRNA sucA): 0.955 | Growth, mean colony biomass (n=4) (gRNA suhB): 0.9525 | Growth represented as mean colony biomass (gRNA tilS): 0.9992 | Growth represented as mean colony biomass (gRNA tonB): 0.9792 | Growth represented as mean colony biomass (gRNA trmD): 0.9503 | Growth represented as mean colony biomass (gRNA tsaB): 1.056 | Growth represented as mean colony biomass (gRNA tsaD): 0.9679 | Growth, mean colony biomass (n=4) (gRNA tsaE): 1 | Growth represented as mean colony biomass (gRNA tsf): 1.027 | Growth represented as mean colony biomass (gRNA tusE): 1.013 | Growth represented as mean colony biomass (gRNA tyrS): 1.017 | Growth represented as mean colony biomass (gRNA ubiB): 0.9814 | Growth represented as mean colony biomass (gRNA ubiD): 0.9742 | Growth, mean colony biomass (n=4) (gRNA waaA): 1.024 | Growth represented as mean colony biomass (gRNA ydaS): 0.9646 | Growth represented as mean colony biomass (gRNA ydcD): 0.9635 | Growth represented as mean colony biomass (gRNA ydhL): 0.9757 | Growth, mean colony biomass (n=4) (gRNA yedN): 1.025 | Growth represented as mean colony biomass (gRNA yejM): 1.046 | Growth represented as mean colony biomass (gRNA yffS): 1.013 | Growth represented as mean colony biomass (gRNA ygeF): 0.9624 | Growth, mean colony biomass (n=4) (gRNA ygeN): 1.008 | Growth represented as mean colony biomass (gRNA yidC): 0.8393 | Growth represented as mean colony biomass (gRNA ymfE): 0.903 | Growth represented as mean colony biomass (gRNA ymiB): 0.9243 | Growth, mean colony biomass (n=4) (gRNA yqeL): 1.1914 | Growth represented as mean colony biomass (gRNA yqgF): 0.9509 | Growth, mean colony biomass (n=4) (gRNA zipA): 1.134 | growth defect of CRISPRi strains for the compound's molecular target (LolCDE complex and LpxC, respectively) [1]: strongest growth defect | growth defect of the lgt CRISPRi mutant in the presence of compound [1]: did not demonstrate a growth defect
